What was measured:
Type in all cases: cell-based, human
21MT1 cells = experiment: In vitro proliferation of parental 21MT1 cells after panitumumab treatment; details: parental 21MT1, HER-2 positive, trastuzumab and lapatinib resistant; blocking HER-1 function
HCC-1954 cells = experiment: In vitro proliferation of parental HCC-1954 cells after panitumumab treatment; details: parental HCC-1954, HER-2 positive, trastuzumab and lapatinib resistant; blocking HER-1 function
JimT1 cells = experiment: In vitro proliferation of parental JimT1 cells after panitumumab treatment; details: parental JimT1, HER-2 positive, trastuzumab and lapatinib resistant; blocking HER-1 function

Measured: proliferation in vitro

Panitumumab
decreased proliferation: all assays above

From patent US20230002505A1, “TREATMENT OF THERAPY-RESISTANT HER-2 POSITIVE BREAST CANCER” (OREGON HEALTH & SCIENCE UNIVERSITY, priority 2017, published 2023)
